Measurements published in US12478624B2, “Heterocyclic derivatives, pharmaceutical compositions and their use in the treatment or amelioration of cancer” (Tolremo Therapeutics AG, priority 2019, dated 2025).

Assays:
[1] = tested on: A375 cells; experiment: Assay 1: A375 cells treated with S1152, S1008 and compound, immunofluorescence (sc-365823) signal; type: cell-based; conditions: 1 μM S1152 + 0.5 μM S1008, one day
How it was run: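 A375 cells treated one day with 1 μM S1152, 0.5 μM S1008 and compound dose ranges in DMEM/10% FCS, then fixed, permeabilised and immunostained. Green signal normalised to nuclear counterstain (ethidium-type or DAPI), log ratio fitted by four-parameter regression for EC50.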

[2] = tested on: OPM-2; experiment: Assay 2: multiple myeloma cellular efficacy, PrestoBlue cell proliferation/survival; type: cell-based; conditions: Homo sapiens, 96 h, OPM-2 cells, 4 days
Description: Multiple Myeloma Cellular Efficacy:
10000 OPM-2 (ACC50; DSMZ) were plated into wells of a 384 well plate (Greiner 781090). Cells were treated for 4 days with a dose range of compound or vehicle. At the end of the experiment cells were stained directly with PrestoBlue (ThermoFisher Scietific; A13262) for 2 hours at 37° C. in a humidified incubator according to manufactor's instruction. To assess the relative cell number the PrestoBlue signal was measured using either a TecanM1000Pro reader or a Tecan Sparks reader following the manufactor's instructions. Background (no cells) values were subtracted and set in relation to the vehicle control. To assess the EC50 of each compound the relative fluorescence value was plotted against the compound concentration after log transformation. Data were fitted in a nonlinear manner with a variable slope (four parameters) using graphpad prism software. Cellular efficacy of compounds was evaluated in the multiple myeloma cell line OPM-2 using the cell proliferation/survival assay PrestoBlue. EC50 values are classified as indicated below.

| SMILES | EC50 [1] | EC50 [2] |
| --- | --- | --- |
| CC(=O)N1C[C@H](c2nc(Nc3ccnc(C)c3)cc(-c3cncc4c3cnn4C)n2)CC[C@@H]1C [Compound 00112, 1-((2S,5R)-2-methyl-5-(4-(1-methyl-1/7-pyrazolo[3,4-c]pyridin-4-yl)-6-((2-methylpyridin-4-yl)amino)pyrimidin-2-yl)piperidin-1-yl)ethan-1-one] | < 200 nM | < 200 nM |
| COCCOc1cncc(-c2cc(Nc3ccnc(F)c3)nc([C@@H]3CC[C@H](C)N(C(C)=O)C3)n2)c1 [Compound 00119, 1-((2S,5R)-5-(4-((2-fluoropyridin-4-yl)amino)-6-(5-(2-methoxyethoxy)pyridin-3-yl)pyrimidin-2-yl)-2-methylpiperidin-1-yl)ethan-1-one] | < 200 nM | < 200 nM |
| CC(=O)N1C[C@H](c2nc(Nc3cc(C)nc(C(F)F)c3)cc(-c3cccnc3)n2)CC[C@@H]1C [Compound 00144, 1-((2S,5R)-5-(4-((2-(difluoromethyl)-6-methylpyridin-4-yl)amino)-6-(pyridin-3-yl)pyrimidin-2-yl)-2-methylpiperidin-1-yl)ethan-1-one] | < 200 nM | < 200 nM |
| CC(=O)N1C[C@H](c2nc(Nc3cccc4c3cnn4C)cc(-c3cnccn3)n2)CC[C@@H]1C [Compound 00049, 1-((2S,5R)-2-methyl-5-(4-((1-methyl-1H-indazol-4-yl)amino)-6-(pyrazin-2-yl)pyrimidin-2-yl)piperidin-1-yl)ethan-1-one] | < 200 nM | < 200 nM |
| CC(=O)N1C[C@H](c2nc(Nc3cc(F)cc(-c4cnn(C)c4)c3)cc(-c3cncc(OCCO)c3)n2)CC[C@@H]1C [Compound 00093, 1-((2S,5R)-5-(4-((3-fluoro-5-(1-methyl-1H-pyrazol-4-yl)phenyl)amino)-6-(5-(2-hydroxyethoxy)pyridin-3-yl)pyrimidin-2-yl)-2-methylpiperidin-1-yl)ethan-1-one] | < 200 nM | < 200 nM |
| CC(=O)N1C[C@H](c2nc(Nc3cccc(-n4cncn4)c3)cc(-c3cccnc3)n2)CC[C@@H]1C [Compound 00078, 1-((2S,5R)-5-(4-((3-(1H-1,2,4-triazol-1-yl)phenyl)amino)-6-(pyridin-3-yl)pyrimidin-2-yl)-2-methylpiperidin-1-yl)ethan-1-one] | < 200 nM | < 200 nM |
| CC(=O)N1C[C@H](c2nc(Nc3cccc(C(C)(F)F)c3)cc(-c3cccnc3)n2)CC[C@@H]1C [Compound 00058, 1-((2S,5R)-5-(4-((3-(1,1-difluoroethyl)phenyl)amino)-6-(pyridin-3-yl)pyrimidin-2-yl)-2-methylpiperidin-1-yl)ethan-1-one] | < 200 nM | 200 to 1000 nM |
| CC(=O)N1C[C@H](c2nc(Nc3cccc(-c4ncn(C)n4)c3)cc(-c3cccnc3)n2)CC[C@@H]1C [Compound 00052, 1-((2S,5R)-2-methyl-5-(4-((3-(1-methyl-1H-1,2,4-triazol-3-yl)phenyl)amino)-6-(pyridin-3-yl)pyrimidin-2-yl)piperidin-1-yl)ethan-1-one] | < 200 nM | < 200 nM |
| CC(=O)N1C[C@H](c2nc(Nc3ccnc(-c4cnn(C5CC5)c4)c3)cc(-c3cccnc3)n2)CC[C@@H]1C [Compound 00157, 1-((2S,5R)-5-(4-((2-(1-cyclopropyl-1H-pyrazol-4-yl)pyridin-4-yl)amino)-6-(pyridin-3-yl)pyrimidin-2-yl)-2-methylpiperidin-1-yl)ethan-1-one] | < 200 nM | < 200 nM |
| CC(=O)N1C[C@H](c2nc(Nc3cccc(-c4noc(C)n4)c3)cc(-c3cnccn3)n2)CC[C@@H]1C [Compound 00064, 1-((2S,5R)-2-methyl-5-(4-((3-(5-methyl-1,2,4-oxadiazol-3-yl)phenyl)amino)-6-(pyrazin-2-yl)pyrimidin-2-yl)piperidin-1-yl)ethan-1-one] | < 200 nM | < 200 nM |
| CC(=O)N1C[C@H](c2nc(Nc3cc(C)nc(-c4cnn(C)c4)c3)cc(-c3cccnc3)n2)CC[C@@H]1C [Compound 00161, 1-((2S,5R)-2-methyl-5-(4-((2-methyl-6-(1-methyl-1H-pyrazol-4-yl)pyridin-4-yl)amino)-6-(pyridin-3-yl)pyrimidin-2-yl)piperidin-1-yl)ethan-1-one] | < 200 nM | < 200 nM |
| CC(=O)N1C[C@H](c2nc(Nc3ccnc(C)c3)cc(-c3cncc4c3ccn4C)n2)CC[C@@H]1C [Compound 00116, 1-((2S,5R)-2-methyl-5-(4-(1-methyl-1/7-pyrrolo[2,3-c]pyridin4-yl)-6-((2-methylpyridin-4-yl)amino)pyrimidin-2-yl)piperidin1-yl)ethan-1-one] | < 200 nM | < 200 nM |
| CC(=O)N1C[C@H](c2nc(Nc3ccnc(C)c3)cc(-c3cncc(C)n3)n2)CC[C@@H]1C [Compound 00131, 1-((2S,5R)-2-methyl-5-(4-(6-methylpyrazin-2-yl)-6-((2-methylpyridin-4-yl)amino)pyrimidin-2-yl)piperidin-1-yl)ethan-1-one] | < 200 nM | < 200 nM |
| CC(=O)N1C[C@H](c2nc(Nc3ccnc(C(F)(F)F)c3)cc(-c3cccnc3)n2)CC[C@@H]1C [Compound 00123, 1-((2S,5R)-2-methyl-5-(4-(pyridin-3-yl)-6-((2-(trifluoromethyl)pyridin-4-yl)amino)pyrimidin-2-yl)piperidin 1-yl)ethan-1-one] | < 200 nM | < 200 nM |
| COc1cc(Nc2cc(-c3cccnc3)nc([C@@H]3CC[C@H](C)N(C(C)=O)C3)n2)cc(C)n1 [Compound 00140, 1-((2S,5R)-5-(4-((2-methoxy-6-methylpyridin-4-yl)amino)-6-(pyridin-3-yl)pyrimidin-2-yl)-2-methylpiperidin-1-yl)ethan-1-one] | < 200 nM | < 200 nM |
| COCCn1ccc2c(-c3cc(Nc4cccc(-c5cn(C)nn5)c4)nc([C@@H]4CC[C@H](C)N(C(C)=O)C4)n3)cncc21 [Compound 00094, 1-((2S,5R)-5-(4-(1-(2-methoxyethyl)-1H-pyrrolo[2,3-c]pyridin4-yl)-6-((3-(1-methyl-1H-1,2,3-triazol-4-yl)phenyl)amino)pyrimidin-2-yl)-2-methylpiperidin-1-yl)ethan1-one] | < 200 nM | < 200 nM |
| CC(=O)N1C[C@H](c2nc(Nc3cccc(-n4cnnn4)c3)cc(-c3cccnc3)n2)CC[C@@H]1C [Compound 00063, 1-((2S,5R)-5-(4-((3-(1H-tetrazol-1-yl)phenyl)amino)-6-(pyridin-3-yl)pyrimidin-2-yl)-2-methylpiperidin-1-yl)ethan-1-one] | < 200 nM | 200 to 1000 nM |
| CC(=O)N1C[C@H](c2nc(Nc3cc(-c4cnn(C)c4)cc(C(F)F)c3)cc(-c3cnccn3)n2)CC[C@@H]1C [Compound 00055, 1-((2S,5R)-5-(4-((3-(difluoromethyl)-5-(1-methyl-1Hpyrazol-4-yl)phenyl)amino)-6-(pyrazin-2-yl)pyrimidin-2-yl)-2-methylpiperidin-1-yl)ethan-1-one] | < 200 nM | < 200 nM |
| CC(=O)N1C[C@H](c2nc(Nc3ccnc(C)c3)cc(-c3cnccn3)n2)CC[C@@H]1C [Compound 000126] | < 200 nM | < 200 nM |
| CC(=O)Nc1cc(Nc2cc(-c3cccnc3)nc([C@@H]3CC[C@H](C)N(C(C)=O)C3)n2)ccn1 [Compound 00136, N-(4-((2-((3R,6S)-1-acetyl-6-methylpiperidin-3-yl)-6-(pyridin-3-yl)pyrimidin-4-yl)amino)pyridin-2-yl)acetamide] | 1000 to 10000 nM | 1000 to 10000 nM |
